The test system of series [1] is Wild oats (Avena fatua, AVEFA). Put plainly: Increase of the biological activity of glyphosate by adjuvants, greenhouse trial (tank mix method). Format: in vivo. Conditions: 21 days. From the text:
Here, 50% strength solutions are used. In the case of compound 1, triethanolamine is additionally added to dissolve the acid.
By mixing these tank mix solutions with a commercial aqueous solution of glyphosate isopropylammonium (comprising 62% by weight of the active compound glyphosate IPA salt; IPA: isopropylammonium) and further addition of water, a preparation according to the invention is formed. The ratio of glyphosate (based on the acid equivalent) to adjuvant corresponds to that which is also found in commercially available glyphosate formulations.
For easier monitoring of the adjuvant effects, reduced doses of glyphosate are used; the application rate is 135.2 g a.e./ha glyphosate IPA salt (corresponding to 4.0 mmol or 0.68 g a.e./l at a liquid volume of 200 l/ha). The abbreviation “a.e.” means “acid equivalent”.
The spray solutions comprise the following concentrations of adjuvant: 0.0141% (v/v).
Wild oats (Avena fatua, AVEFA) are cultivated in a greenhouse under 14 hours of light irradiation at a temperature of 18/12 (±0.5)° C. (day/night) and a relative atmospheric humidity of 70/80 (±5) % (day/night). Light is introduced via high-pressure mercury lamps and fluorescent tubes, resulting in a power of 70 W/m^2 (PAR; PAR: photosynthetically active radiation (400-700 nm)) on the leaf level. The plants are cultivated in plastic pots having a diameter of 11 cm, filled with a mixture of sand and soil (Soil No. 12, Colent b.v., Lent, the Netherlands) in a volume ratio of sand:soil=1:2.
The pots are placed on a subirrigation mat which is moistened daily with a nutrient solution of medium strength. After emergence, the AVEFA seedlings are divided into six plants per pot for the activity tests.
The spray solutions are used to carry out greenhouse trials. The effect of the adjuvants on the efficacy of glyphosate is tested.
The spray solutions are applied to the plants using an air pressure-operated laboratory sprayer, such that an application rate of 200 l/ha results.
Wild oats (AVEFA) are treated once they have reached the 2-3 leaf stage.
The efficacy of the herbicide is assessed after 21 days. To this end, the mass of the remaining above-ground plant parts (fresh weight (FW) in gram) is determined. This is shown in table 3, together with the calculated relative residual amount, compared to the untreated plant (in % by weight).

Series [2] concerns tomato plants (cv. Astona F1). Put plainly: Determination of phytotoxicity on tomato plants (auxiliaries sprayed without pesticide). Format: in vivo. As to the method: The phytotoxicity is determined on tomato plants (cv. Astona F1), a species which, as is known, is sensitive to phytotoxic substances taken up via the leaf surface (“Phototoxicity of different classes of adjuvants”, H. de Ruiter, et al., Proceedings Fifth International Symposium on Adjuvants for Agrochemicals, 1998, Ed. P. McMullan, pp. 204-209).
Tomato plants (cv. Astona F1) are cultivated in a greenhouse under 14-hour light irradiation at a temperature of 18/12 (±0.5)° C. (day/night) and a relative atmospheric humidity of 70/80 (±5) % (day/night). 12 days after germination, the seedlings are transplanted into plastic pots having a diameter of 11 cm (one plant per pot) filled with a mixture of sand and soil (Soil No. 12, Colent b.v., Lent, the Netherlands) in a volume ratio of sand:soil=1:2.
The pots are placed on a subirrigation mat which was moistened daily with a nutrient solution of medium strength.
28 days after sowing, the plants were treated at the 4-leaf stage, each plant having a height of 15-17 cm. The auxiliary content of the spray solution was 0.5% (v/v or % by volume).
The spray solutions are applied to the plants using an air pressure-operated laboratory sprayer such that the resulting application rate is 200 l/ha.
The treated plants are scored visually after 2 and 8 days (DAT; DAT: days after treatment) and evaluated using a qualitative scale (1 to 5). Here, 1=no discoloration or necrosis of the leaves to 5=complete necrosis of the treated leaf surface. Moreover, the above-ground plant mass is determined after 8 days (fresh weight). In each case, the average is calculated, based on the number of treated plants.

The structures appear in SMILES notation.

As for `O=C(O)CNCP(=O)(O)O` [Glyphosate, no adjuvant added, glyphosate isopropylammonium], in series [1] (glyphosate IPA salt 135.2 g a.e./ha, adjuvant 0.0141% (v/v), 200 l/ha, untreated 11.26), the “Test 1, fresh weight of remaining above-ground plant parts” value is on record as 9.63 g FW. In addition, the “Mean of tests 1 and 2” value in series [1] (glyphosate IPA salt 135.2 g a.e./ha, adjuvant 0.0141% (v/v), 200 l/ha, untreated 12.97) came out at 11.54 g FW. Moreover, the “Test 2, fresh weight of remaining above-ground plant parts” value in series [1] (glyphosate IPA salt 135.2 g a.e./ha, adjuvant 0.0141% (v/v), 200 l/ha, untreated 14.67) was found to be 13.45 g FW. In addition, the Residual amount in series [1] (calculated relative residual amount compared to the untreated plant (100)) is listed as 89 % by weight.
In the case of `CCCCCCCC/C=C\CCCCCCCCN1CC(C(=O)O)CC1=O` (stereo not drawn) [Compound 1, N-oleyl-2-pyrrolidone-4-carboxylic acid], in series [2] (2 days after treatment, qualitative scale 1 (no discoloration or necrosis of the leaves) to 5 (complete necrosis of treated leaf surface), average, auxiliary 0.5% (v/v), 200 l/ha, no pesticide), the “Visual evaluation (DAT 2)” value came to 1.1. In addition, the “Visual evaluation (DAT 8)” value in series [2] (8 days after treatment, qualitative scale 1 (no discoloration or necrosis of the leaves) to 5 (complete necrosis of treated leaf surface), average, auxiliary 0.5% (v/v), 200 l/ha, no pesticide) is recorded as 1.5. Moreover, the Fresh weight in series [2] (above-ground plant mass after 8 days, average, auxiliary 0.5% (v/v), 200 l/ha, untreated 8.6 g) stood at 8.6 g. In addition, in series [2] (summary of table 2, after 8 days), the “Mass of the plants formed compared to the untreated plant (in words)” value is listed as “not reduced”. Moreover, the “Phytotoxic reaction of the tomato plants (in words)” value in series [2] (summary of table 2, auxiliary 0.5% (v/v)) is on record as “at most minimal signs of a phytotoxic reaction”.

The values are drawn from patent publication US20120264611A1, “Pesticide Preparations Containing Derivatives Of Pyrrolidone-4-Carboxylic Acid” (CLARIANT FINANCE (BVI) LIMITED, priority 2009, published 2012).
